Reference: patent US11845741B2, “Pilocarpine ionic liquids for treatment of glaucoma” (VIRGINIA COMMONWEALTH UNIVERSITY INTELLECTUAL PROPERTY …, priority 2020, dated 2023)
Entries after “also recorded” stand apart in the source; their conditions may differ. Counter-ions that a name gives are not always drawn.

Experiments:
[1] = Stability test: pH of aqueous solutions over 24 h; assay type: physicochemical; conditions: for pH of freshly prepared solution: 0 h
Procedure: (§1) Stability test. Fresh water solutions of Pilo, PiloHCl, and [Pilo-OEG]Cl (5 mM) were prepared and their pH at 0, 0.75, 4, 8, and 24 h was measured with a pH meter ([…]). The samples at 0 and 24 h were further analyzed with LC-MS/MS using a Surveyor Plus HPLC System and triple stage quadrupole (TSQ) Quantum Ultra Mass Spectrometer (Thermo Fisher Scientific, USA) equipped with an auto-sampler and electrospray ionization (ESI) source. Separation was carried out on an Hypersil Gold column (150 mm×2.1 mm, […], Thermo) maintained at 25° C. The mobile phase consisted of 0.1% (v/v) formic acid water phase (A) and methanol phase (B). The gradient elution program was as follows: 95% of A at 0-5 min, and back to 95% of A at 23.1 min, re-conditioning of the column for 8 min. The flow rate was 0.2 mL/min A capillary temperature of 350° C., spray voltage of 4500 V, sheath gas of 30 arb, and auxiliary gas of 10 arb were maintained as the optimal instrument conditions. Unit resolution was used for Q1 (FWHM 0.7). Nitrogen was used as both sheath gas and auxiliary gas.

[2] = Stability test: LC-MS/MS analysis of aqueous solutions at 0 and 24 h; assay type: physicochemical; conditions: water solution, 5 mM
Procedure: as §1

[3] = tested on: HCE-2 human corneal epithelial cells; assay: Cytotoxicity assessment, WST-1 assay; assay type: cell-based; conditions: HCE-2 cells, 24 h, 1 mM to 50 mM
Procedure: (§2) Cytotoxicity assessment. HCE-2 human corneal epithelial cells were seeded in a 96-well plate at a density of 1×10^4 cell/well. After attachment, the cells were incubated with various concentrations of Pilo, PiloHCl and [Pilo-OEG]Cl for 24 h and cell viability was determined by using WST-1 assay. The medium for HCE-2 (ATCC CRL-11135, epithelial Adenovirus 12-SV40 hybrid transformed) was Keratinocyte-serum free medium supplemented with 0.05 mg/mL of bovine pituitary extract (BPE), 5 ng/mL of epidermal growth factor (EGF), 500 ng/mL of hydrocortisone and 0.005 mg/mL of insulin. The cytotoxicity of Pilo and [Pilo-OEG]Cl to NIH3T3 fibroblast cells was also tested.

[4] = Ex vivo corneal permeation, Franz diffusion cell; assay type: in vitro ADME; conditions: rabbit cornea; for amount permeated through the cornea within 4 h: 200 μL of 27 mM in donor chamber
Procedure: Ex vivo corneal permeation studies. Corneas were extracted from fresh rabbit eyes and mounted immediately in a Franz diffusion cell system with the epithelial surface facing the donor chamber. In each test, Pilo, PiloHCl, or [Pilo-OEG]Cl (200 μL, 27 mM) was loaded to the donor chamber. The receiver chamber was filled with 5 mL of PBS. At pre-determined time points up to 4 h, an aliquot of 1 mL from the receiver chamber was collected via syringe and analyzed with UV-Vis spectrophotometer (U-3010, Hitachi). Fresh PBS (1 mL) was added to the receiver chamber following each sampling. All the experiments were conducted in triplicate. The permeability coefficient, P, was then determined based on the following equation: [formula] where dQ/dt is the steady-state slope of a cumulative flux curve (in this study, the data in 1 h is selected for dQ/dt calculation), C is drug concentration in the donor chamber, and A is the effective cross-sectional area (0.629 cm^2) available for diffusion.^22

[5] = tested on: intraocular pressure (IOP); assay: In vivo IOP-lowering efficacy assessment; parameters: species or system normotensive adult Brown Norway female rats; conditions: for IOP reduction after second dose: second topical dose applied 4 hours after the first; for average IOP reduction after first dose: topical 2×5 μL, 82 mM pilocarpine equivalent, 45 min post-administration, n=4; for time of highest IOP reduction post-administration: topical instillation
Procedure: In vivo efficacy assessment. Normotensive adult Brown Norway female rats (Charles River Laboratories), 8 months old, were used in this work. The rats were given free access to food and water, 12 hours light and dark cycle in a temperature-controlled room (18-24° C.). The procedures conducted were approval by Virginia Commonwealth University IACUC. Rats were randomly grouped to two groups of four (n=4). The right eye of each rat was instilled with PiloHCl or [Pilo-OEG]Cl PBS solution (2×5 μL, 82 mM pilocarpine equivalent), one dose at 8:00 am and the second dose at 12:00 pm. The IOPs of both eyes were measured at 8:00 am (before dosing), 8:45 am, 12:00 pm (before the second dosing), 12:45 pm, and 16:00 pm using Icare TONOLAB tonometer TV02.

[6] = literature value; cited from earlier work
[7] = Cytotoxicity assessment, WST-1 assay; assay type: cell-based, human; conditions: human, HCE-2 human corneal epithelial cells; HCE-2 cells, 24 h incubation, WST-1
Procedure: as §2

In the case of `CC[C@@H]1C(=O)OC[C@@H]1Cc1c[n+](CCOCCOCCO)cn1C.[Cl-]` [[Pilo-OEG]Cl], the “pH of freshly prepared solution” value ([1]; water solution, 5 mM) is reported as 7.3, the “pH stability of aqueous solution within 24 h” value ([1]; water solution, 5 mM, 24 h) is reported as “remain relatively stable” and the “degradation products formed in solution (LC-MS)” value (shortened to “degradation products formed”) [2] is reported as “neither isopilocarpine or pilocarpine and isopilocarpine acids formed”. The cytotoxicity / cytocompatibility [3] was “did not show apparent toxicity; also recorded: cytocompatible”, the “permeability coefficient, fold higher than Pilo” value [4] was 1 fold and the “permeability coefficient, fold higher than PiloHCl” value [4] was 8 fold. The “amount permeated through the cornea within 4 h” value ([4]; 4 h) was 51.6±8.1%, the “amount permeated, fold higher than PiloHCl” value ([4]; 4 h) was 5 fold and the Papp at 1 h, 27 mM ([4]; rabbit, dQ/dt from data in 1 h, read-out: permeability coefficient) was 130 nm/s. The “IOP reduction, fold versus PiloHCl” value ([5]; first dose, statistical significance not established) was 2 fold, the “IOP reduction after second dose” value [5] was 2.625 mmHg and the “average IOP reduction after first dose” value [5] was 2.75 mmHg. The “time of highest IOP reduction post-administration” value [5] was 45 min.
With `CC[C@@H]1C(=O)OC[C@@H]1Cc1cncn1C` [Pilo, Pilocarpine] the “pH of freshly prepared solution” value ([1]; water solution, 5 mM) was 9.2, the “pH of solution at 8 h” value ([1]; water solution, 5 mM, 8 h) was 8.7 and the “pH of solution at 24 h” value ([1]; water solution, 5 mM, 24 h) was 8.2. The pKa ([1]; water solution, calculated/estimated from pH at 0 h, 5 mM in water, read-out: dissociation constant (pKa)) was 7.28, the “degradation products formed” value [2] was “isopilocarpine formed (eluted at 2.02 min, m/z=209.06) and further hydrolyzed into acids” and the cytotoxicity / cytocompatibility [3] was “cytocompatible”. For the same compound, the “amount permeated through the cornea within 4 h” value ([4]; 4 h) was 27.8±14.7%, the permeability coefficient ([4]; dQ/dt from data in 1 h) was 66 nm/s and the “pKa reported in the Merck Index” value [6] was 7.15.
For `CC[C@@H]1C(=O)OC[C@@H]1Cc1cncn1C` [PiloHCl, pilocarpine hydrochloride], the “dissociation constant (pKa)” value ([1]; calculated/estimated from pH at 0 h, 5 mM in water, hydrochloride) was 8.34, the “pH of freshly prepared solution” value ([1]; water solution, 5 mM, hydrochloride) was 5.3 and the “pH stability of aqueous solution within 24 h” value ([1]; water solution, 5 mM, 24 h) was “remain relatively stable”. For the same compound, the “degradation products formed” value ([2]; hydrochloride) was “Isopilocarpine also formed”, the IC50 at 24 h [7] was 25 mM and the cytotoxicity / cytocompatibility ([3]; hydrochloride) was “strong dose-dependent cytotoxicity”. The “amount permeated through the cornea within 4 h” value ([4]; 4 h, hydrochloride) was 8.1±1.8%, the permeability coefficient ([4]; dQ/dt from data in 1 h, hydrochloride) was 15 nm/s and the “IOP reduction after second dose” value [5] was about 1 mmHg. For the same compound, the “average IOP reduction after first dose” value [5] was 1.25 mmHg and the “time of highest IOP reduction post-administration” value [5] was 45 min.
